Where two headings read alike, the source gives them in different places.
Assays:
[1] = system: Factor VII (FVII) protein; experiment: Measurement of Factor VII (FVII) protein in mouse plasma after FVII-siRNA lipid particles; type: in vivo, C57BL6/J mice; details: 0.1 mg/kg caudal vein, plasma 24 hours after administration, PBS group = 100%
How it was run: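 C57BL6/J mice (n=3) received FVII-siRNA nucleic acid lipid particles at 0.1 mg/kg into the tail vein; controls got PBS. Each value is the percentage of the PBS-group FVII level.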

[2] = Nucleic acid encapsulation rate of nucleic acid lipid particles (FVII-siRNA); type: physicochemical
How it was run: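 Total nucleic acid was measured by adding 30 μL of 3 mol/L sodium acetate and 9 μL of glycogen to 60 μL of FVII-siRNA lipid particles, then precipitating with 1.5 mL ethanol, centrifuging, air-drying, redissolving in water, and reading on a Nanodrop. Outer-phase nucleic acid came from a RiboGreen assay (ex 485 nm, em 535 nm) on samples diluted 10,000× in 1×TE. Encapsulation (%) = (total − outer)/total × 100.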

[3] = Particle size of nucleic acid lipid particles (FVII-siRNA); type: physicochemical
How it was run: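 Lipid particles formed by micromixing ethanolic ionizable lipid/DSPC/cholesterol/DMG-PEG2000 (50/10/38.5/1.5 mol) with siRNA in pH 4 acetate buffer (3:1 water:oil), diluted with PBS and dialysed against PBS.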

[4] = Encapsulation rate of siRNA in nucleic acid lipid particles (Luc2-siRNA); type: physicochemical; details: compound/DSPC/cholesterol/DMG-PEG2000 50/10/38.5/1.5
How it was run: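 Encapsulation rate was calculated as (total − outer-phase siRNA)/total ×100. Total siRNA was quantified spectrophotometrically after lipid-dissolving ethanol precipitation, and unencapsulated siRNA by RiboGreen in TE (ex 485/em 535 nm). The particles were test lipid/DSPC/cholesterol/DMG-PEG2000 at 50/10/38.5/1.5, formed by microfluidic mixing with Luc2-siRNA at pH 4 and dialyzed against PBS.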

[5] = system: DMS273 cells constantly expressing Luc; experiment: Target reporter protein (Luc) knockdown in cell, reporter protein assay; type: cell-based; details: Homo sapiens, DMS-273
How it was run: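 Nucleic acid lipid particles added at final 0.1 to 100 nmol/L to DMS273 human SCLC cells stably expressing Luc2, 24 hr exposure then 24 hr further culture after medium change. Luc quantified by Steady Glo luminescence after viable cell count; knockdown efficiency calculated and IC50 taken as concentration giving 50% Luc reduction.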

[6] = Particle size of nucleic acid lipid particles (Luc2-siRNA); type: physicochemical; details: compound/DSPC/cholesterol/DMG-PEG2000 50/10/38.5/1.5
How it was run: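 Lipid particles formed from oil phase (test lipid/DSPC/cholesterol/DMG-PEG2000, 50/10/38.5/1.5 molar, 20 mmol/L total in ethanol) micromixed 1:3 with Luc2-siRNA in pH 4 acetate buffer (19.7 μmol/L); siRNA/lipid 339 mol/mol, PBS-diluted and dialyzed. Size measured on ELS-Z2 dynamic light scattering.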

[7] = Luc2-siRNA lipid particles using the compound, siRNA 0.1 to 100 nmol/L, concentration at which Luc expression is knocked down to 50%, read-out: IC50

| SMILES | Relative amount of FVII protein (%) [1] [%] | Nucleic acid encapsulation rate [2] [%] | Particle size (nm) [3] [nm] | Nucleic acid encapsulation rate [4] [%] | IC50 [5, 7] [µM] | Particle size (nm) [6] [nm] | IC50 [5] [µM] |
| --- | --- | --- | --- | --- | --- | --- | --- |
| CCCCCCCCCCC(CCCCCCCC)COC(=O)CCCCCCCCC(CCCCCC)OC(=O)OCCN(CCN(CC)CC)C(C)C (stereo not drawn) [Example 121, 2-Octyldodecyl 3-ethyl-12-hexyl-6-isopropyl-10-oxo-9,11-dioxa-3,6-diazahenicosan-21-oate] | 10 | 70 | 65.8 | 91 | 0.039 | 63.2 | – |
| CCCC/C=C\CCCCCCCC(=O)OCCCCCCC(CCCCCCOC(=O)CCCCCCC/C=C\CCCC)OC(=O)OCCN(CC)CCN(CC)CC [Example 47, 7-(((2-((2-(Diethylamino)ethyl)(ethyl)amino)ethoxy)carbonyl)oxy)tridecane-1,13-diyl(9Z,9′Z)-bis(tetradec-9-enoate)] | 11 | 82 | 79.4 | 74 | 0.019 | 72.3 | – |
| CCCCCCCC/C=C\CCCCCCCC(=O)OCCCCCCC(CCCCCCOC(=O)CCCCCCC/C=C\CCCCCCCC)OC(=O)OCCN(CCCCCC)CCN(C)C [Example 43] | 11 | 87 | 75.3 | 78 | 0.019 | 74.5 | – |
| CCCCCCCCCCCC(=O)OCCN(CCOC(=O)OC(CCCCCC)CCCC(=O)OCC(CCCCCC)CCCCCCCC)CCN(CC)CC (stereo not drawn) [Example 109, 2-Hexyldecyl 6-(2-(dodecanoyloxy)ethyl)-3-ethyl-12-hexyl-10-oxo-9,11-dioxa-3,6-diazahexadecan-16-oate] | 3 | 86 | 62.7 | 91 | 0.026 | 65.7 | – |
| CCCCC/C=C\C/C=C\CCCCCCCCC(CCCCCCCC/C=C\C/C=C\CCCCC)OC(=O)OCCN(CCCCCCCC)CCN(C)C [Example 52, 2-((2-(Dimethylamino)ethyl)(octyl)amino)ethyl((6Z,9Z,28Z,31Z)-heptatriaconta-6,9,28,31-tetraen-19-yl)carbonate] | 19 | 83 | 73.1 | 80 | 0.027 | 79.9 | – |
| CCCCCCCCCCCCC(CCCCCCCCCC)COC(=O)CCCC(CCCCCC)OC(=O)OCCN(CCN(CC)CC)C(C)C (stereo not drawn) [Example 113, 2-Decyltetradecyl 3-ethyl-12-hexyl-6-isopropyl-10-oxo-9,11-dioxa-3,6-diazahexadecan-16-oate] | 4 | 100 | 66.1 | 82 | 0.021 | 67.8 | – |
| CCCCCCCC/C=C\CCCCCCCC(=O)OCCN(CCOC(=O)OC(CCCCCC)CCCC(=O)OCC(CCCCCC)CCCCCCCC)CCN(CC)CC (stereo not drawn) [Example 120, 2-Hexyldecyl 3-ethyl-12-hexyl-6-(2-(oleoyloxy)ethyl)-10-oxo-9,11-dioxa-3,6-diazahexadecan-16-oate] | 6 | 66 | 68.1 | 90 | 0.027 | 66.5 | – |
| CCCCCCCC/C=C\CCCCCCCC(=O)OCCN(CCOC(=O)OC(CCCCCC)CCCC(=O)OCC(CCCC)CCCCCC)CCN(CC)CC (stereo not drawn) [Example 119, 2-Butyloctyl 3-ethyl-12-hexyl-6-(2-(oleoyloxy)ethyl)-10-oxo-9,11-dioxa-3,6-diazahexadecan-16-oate] | 5 | 69 | 66.3 | 89 | 0.031 | 67.8 | – |
| CCCCC/C=C\C/C=C\CCCCCCCCC(CCCCCCCC/C=C\C/C=C\CCCCC)OC(=O)OCCN(CCCCC)CCN(C)C [Example 40, 2-((2-(Dimethylamino)ethyl)(pentyl)amino)ethyl((6Z,9Z,28Z,31Z)-heptatriaconta-6,9,28,31-tetraen-19-yl)carbonate] | 3 | 75 | 66.6 | 75 | 0.015 | 73.7 | – |
| CCCCC/C=C\C/C=C\CCCCCCCCC(CCCCCCCC/C=C\C/C=C\CCCCC)OC(=O)OCCN(CC)CCN(C)C [Example 24, 2-((2-(Dimethylamino)ethyl)(ethyl)amino)ethyl((6Z,9Z,28Z,31Z)-heptatriaconta-6,9,28,31-tetraen-19-yl)carbonate] | 24 | 67 | 66.2 | 88 | 0.041 | 62.0 | – |
| CCCCCCCCC(CCCCCC)COC(=O)CCCC(CCCCCC)OC(=O)OCCN(CCOC(=O)CCCCCCC)CCN(CC)CC (stereo not drawn) [Example 111, 2-Hexyldecyl 3-ethyl-12-hexyl-6-(2-(octanoyloxy)ethyl)-10-oxo-9,11-dioxa-3,6-diazahexadecan-16-oate] | 2 | 88 | 70.5 | 93 | 0.042 | 63.9 | – |
| CCCCC/C=C\C/C=C\CCCCCCCC(=O)OCCCCCCC(CCCCCCOC(=O)CCCCCCC/C=C\C/C=C\CCCCC)OC(=O)OCCN(CC)CCN(CC)CC [Example 45, 7-(((2-((2-(Diethylamino)ethyl)(ethyl)amino)ethoxy)carbonyl)oxy)tridecane-1,13-diyl(9Z,9′Z,12Z,12′Z)-bis(octadeca-9,12-dienoate)] | 16 | 79 | 71.5 | 76 | 0.022 | 71.7 | – |
| CCCCCCCCCC(=O)OCCCCCCC(CCCCCCOC(=O)CC(CCCCCCC)CCCCCCC)OC(=O)OCCN(CC)CCN(CC)CC (stereo not drawn) [Example 78, 12-(6-(Decanoyloxy)hexyl)-3,6-diethyl-10-oxo-9,11-dioxa-3,6-diazooctadecan-18-yl 3-heptyldecanoate] | 10 | 78 | 74.2 | 75 | – | 71.7 | 0.016 |
| CCCCCCC(CCCC)COC(=O)CCCCCCCCC(CCCCCCCCC(=O)OCC(CCCC)CCCCCC)OC(=O)OCCN(CC)CCN(CC)CC (stereo not drawn) [Example 72, Bis(2-butyloctyl)10-(((2-((2-(diethylamino)ethyl)(ethyl)amino)ethoxy)carbonyl)oxy)nonadecanedioate] | 6 | 85 | 72.4 | 81 | 0.031 | 74.2 | – |
